For data set [1], the system named is human erythrocytes. As to the kind of experiment: Hemolytic activity. The format is cell-based. To be noted: Erythrocyte, 1 h at 37 °C, read-out: ED50, Erythrocytes (hemolytic activity). The method, then: Human blood (B(III) Rh+) was used to obtain erythrocytes by centrifuging 450× g three times for 5 min with phosphate-buffered saline (PBS) (pH 7.4) at 4 °C on centrifuge LABOFUGE 400R (Heraeus, Hanau, Germany). Ice-cold PBS (pH 7.4) was used for resuspension of erythrocytes residue to a final optical density of 1.5 at 700 nm, which was kept on ice. Then, 10 µL of tested compound solution or control (okhotoside A1-1 (7)) were added to 90 µL of erythrocyte suspension in V-bottom 96-well plates and exposed for 1 h at 37 °C. Next, centrifugation at 900× g for 10 min on a laboratory centrifuge LMC-3000 (Biosan, Riga, Latvia), led to separation of layers, and 80 µL of supernatant was carefully decanted and transferred into new flat-plate for each. The values of erythrocyte lysis were measured on microplate photometer Multiskan FC (Thermo Fisher Scientific, Waltham, MA, USA) at λ = 570 nm as hemoglobin concentration in supernatant. The effective dose, causing lysis of 50% erythrocytes (ED50), was calculated with SigmaPlot 14.0 software. All the experiments were carried out in triple repetitions, p ≤ 0.05.

The subject of data set [2] is MDA-MB-231 cells. The experiment in a line: cells. The conditions noted are these: Homo sapiens, MDA-MB-231; MTT, 24 h; read-out: Cytotoxicity, IC50, MDA-MB-231. Format: cell-based, human. An excerpt: (§1) Human erythrocytes were purchased from the Station of Blood Transfusion, Vladivostok. Human mammary epithelial cell line MCF-10A CRL-10317, human breast cancer cell lines T-47D HTB-133, MCF-7 HTB-22, and MDA-MB-231 CRM-HTB-26 were received from ATCC (Manassas, VA, USA). Culturing conditions: medium of RPMI-1640 with 1% penicillin/streptomycin (Biolot, St. Petersburg, Russia) and 10% fetal bovine serum (FBS) (Biolot, St. Petersburg, Russia) for the T-47D cell line; Minimum Essential Medium (MEM) with 1% penicillin/streptomycin sulfate (Biolot, St. Petersburg, Russia) and FBS (Biolot, St. Petersburg, Russia) to a final concentration of 10% for MCF-7 and MDA-MB-231 cells; DMEM/F12 medium with 10% FBS, 20 ng/mL EGF, […] hydrocortisone, 100 ng/mL cholera toxin, 10 μg/mL insulin, and 1% penicillin/streptomycin (BioinnLabs, Rostov-on-Don, Russia) for MCF-10A cell line.
(§2) The concentrations of tested glycosides were 0.1–50 µM; positive controls were cisplatin and okhotoside A1-1 (7). […] Then, the solutions of tested compounds with medium were replaced by 100 µL of fresh medium, and 10 µL of 3-(4,5-dimethylthiazol-2-yl)-2,5-diphenyltetrazolium bromide (MTT) (PanReac, AppliChem, Darmstadt, Germany) stock solution (5 mg/mL) was added to each well and incubated for 4 h, followed by the addition of 100 µL of SDS-HCl solution (1 g SDS/10 mL d-H2O/17 µL 6 N HCl) and further incubated for 18 h. Multiskan FC microplate photometer (Thermo Fisher Scientific, Waltham, MA, USA) was used to measure the absorbance of the converted dye formazan at 570 nm. The concentration caused the 50% cell metabolic activity inhibition (IC50) expresses the cytotoxic activity of each glycoside. The experiments were conducted in triplicate, p ≤ 0.05.

For data set [3], the system named is T-47D cells. As to the kind of experiment: cells. Format: cell-based, human. The conditions noted are these: Homo sapiens, T47D; MTT, 24 h; read-out: Cytotoxicity, IC50, T-47D.
Excerpt: as §1
(§3) The concentrations of tested glycosides were 0.1–50 µM; positive controls were cisplatin and okhotoside A1-1 (7). Methodology: to each well of 96-well plates, the cell suspension (180 µL) with solution (20 µL) of tested glycoside in a certain concentration was placed (MCF-10A, MCF-7, T-47D, and MDA-MB-231—7 × 10^3 cells per well) and incubated in the atmosphere with 5% CO2 at 37 °C for 24 h. Then, the solutions of tested compounds with medium were replaced by 100 µL of fresh medium, and 10 µL of 3-(4,5-dimethylthiazol-2-yl)-2,5-diphenyltetrazolium bromide (MTT) (PanReac, AppliChem, Darmstadt, Germany) stock solution (5 mg/mL) was added to each well and incubated for 4 h, followed by the addition of 100 µL of SDS-HCl solution (1 g SDS/10 mL d-H2O/17 µL 6 N HCl) and further incubated for 18 h. Multiskan FC microplate photometer (Thermo Fisher Scientific, Waltham, MA, USA) was used to measure the absorbance of the converted dye formazan at 570 nm. The concentration caused the 50% cell metabolic activity inhibition (IC50) expresses the cytotoxic activity of each glycoside. The experiments were conducted in triplicate, p ≤ 0.05.

The test system of data set [4] is MCF-7 cells. As to the kind of experiment: cells. Format: cell-based, human. The conditions noted are these: Homo sapiens, MCF7; MTT, 24 h; read-out: Cytotoxicity, IC50, MCF-7.
Excerpt: as §1, §3

Data set [5] is described as follows: in vitro. The conditions noted are these: human, MTT, 24 h; read-out: Cytotoxicity, IC50, MCF-10A. Format: cell-based, human.
Excerpt: as §1, §2

Where a name gives a salt, the structure may show the parent alone.

Turning to `CO[C@@H]1[C@@H](O)[C@H](O[C@@H]2[C@@H](O)[C@H](O[C@H]3[C@H](O)[C@@H](O[C@@H]4OC[C@@H](O)[C@H](O)[C@H]4O)[C@H](O[C@H]4[C@H](O[C@H]5CC[C@]6(C)C7CC[C@]8(C)[C@@H]([C@@](C)(O)[C@@H](CC=C(C)C)OC(C)=O)CC[C@@]8(C)C7=CC[C@H]6C5(C)C)OC[C@@H](OS(=O)(=O)O)[C@@H]4O)O[C@@H]3C)O[C@H](COS(=O)(=O)O)[C@H]2O)O[C@H](CO)[C@H]1O` (stereo partly drawn) [Conicospermiumoside A3-2 (2), 3β-O-{3-O-methyl-β-D-glucopyranosyl-(1→3)-6-O-sodium sulfate-β-D-glucopyranosyl-(1→4)-[(1→2)-β-D-xylopyranosyl]-β-D-quinovopyranosyl-(1→2)-4-O-sodium sulfate-β-D-xylopyranosyl}-20R-hydroxy,22R-acetoxylanosta-7,24-diene], in data set [1], the HC50 was 7560 ± 80 nM. For the same compound, the IC50 – broadly, the concentration at which inhibition is half-maximal – in data set [2] is 20.7 ± 2.28 µM; in data set [3] it was 38.9 ± 1.62 µM; in data set [4] it was more than 50 µM; in data set [5], 36.8 ± 2.48 µM.
As to `CO[C@@H]1[C@@H](O)[C@H](O[C@@H]2[C@@H](O)[C@H](O[C@H]3[C@H](O)[C@@H](O[C@@H]4OC[C@@H](O)[C@H](O)[C@H]4O)[C@H](O[C@H]4[C@H](O[C@H]5CC[C@]6(C)C7CC[C@]8(C)[C@@H]([C@@](C)(O)[C@H](O)/C=C/C(C)(C)O)CC[C@@]8(C)C7=CC[C@H]6C5(C)C)OC[C@@H](OS(=O)(=O)O)[C@@H]4O)O[C@@H]3C)O[C@H](COS(=O)(=O)O)[C@H]2O)O[C@H](COS(=O)(=O)O)[C@H]1O` (stereo partly drawn) [Conicospermiumoside A7-2 (5), 3β-O-{6-O-sodium sulfate-3-O-methyl-β-D-glucopyranosyl-(1→3)-6-O-sodium sulfate-β-D-glucopyranosyl-(1→4)-[(1→2)-β-D-xylopyranosyl]-β-D-quinovopyranosyl-(1→2)-4-O-sodium sulfate-β-D-xylopyranosyl}-(20R,22R,25)-trihydroxylanosta-7,23-diene], the HC50 in data set [1] amounted to 20400 ± 360 nM. The IC50 in data set [2] is 49.9 ± 1.45 µM; in data set [3] it was more than 50 µM; in data set [4] it was more than 50 µM; in data set [5], more than 50 µM.
As to `CO[C@@H]1[C@@H](O)[C@H](O[C@@H]2[C@@H](O)[C@H](O[C@H]3[C@H](O)[C@@H](O[C@@H]4OC[C@@H](O)[C@H](O)[C@H]4O)[C@H](O[C@H]4[C@H](O[C@H]5CC[C@]6(C)C7CC[C@]8(C)[C@@H]([C@@](C)(O)[C@H](O)CC=C(C)C)CC[C@@]8(C)C7=CC[C@H]6C5(C)C)OC[C@@H](OS(=O)(=O)O)[C@@H]4O)O[C@@H]3C)O[C@H](COS(=O)(=O)O)[C@H]2O)O[C@H](COS(=O)(=O)O)[C@H]1O` (stereo partly shown) [Frondoside A7-4 (14), frondoside A7-4], the HC50 in data set [1] is 2160 ± 60 nM. The IC50 in data set [2] is 8.11 ± 0.74 µM; in data set [3], 44.5 ± 2.18 µM; in data set [4], 32.9 ± 2.13 µM; in data set [5], 26.8 ± 0.94 µM.
As to `CO[C@@H]1[C@@H](O)[C@H](O[C@@H]2[C@@H](O)[C@H](O[C@H]3[C@H](O)[C@@H](O[C@@H]4OC[C@@H](O)[C@H](O)[C@H]4O)[C@H](O[C@H]4[C@H](OC5CC[C@]6(C)[C@H]7CCC89C(=O)O[C@@](C)(CCCC(C)C)C8[C@@H](OC(C)=O)C[C@@]9(C)C7=CC[C@H]6C5(C)C)OC[C@@H](OS(=O)(=O)O)[C@@H]4O)O[C@@H]3C)OC[C@H]2O)O[C@H](CO)[C@H]1O` (stereo partly shown) [Frondoside A (10), frondoside A], the HC50 in data set [1] turned out to be 1220 ± 60 nM. Besides, the IC50 in data set [2] amounted to 2.79 ± 0.09 µM; in data set [3] it was 9.76 ± 0.53 µM; in data set [4] it was 19.4 ± 0.48 µM; in data set [5], 11 ± 1.04 µM.
As for `COC1C(O)C(CO)OC(OC2C(O)COC(OC3C(C)OC(OC4C(OC5CCC6(C)C7CCC89C(=O)OC(C)(CC(=O)CC(C)C)C8C(OC(C)=O)CC9(C)C7=CCC6C5(C)C)OCC(OS(=O)(=O)O)C4O)C(O)C3O)C2O)C1O` (stereo not shown) [Okhotoside A1-1 (7), okhotoside A1-1], the HC50 in data set [1] came out at 420 ± 20 nM. Also, the IC50 stood at 2.25 ± 0.17 µM in data set [2], 6.23 ± 0.68 µM in data set [3], 10.9 ± 0.96 µM in data set [4] and 7.95 ± 0.44 µM in data set [5].

These data come from paper PMC11676834, “Composition of Triterpene Glycosides of the Far Eastern Sea Cucumber Cucumaria conicospermium Levin et Stepanov; Structure Elucidation of Five Minor Conicospermiumosides A3-1, A3-2, A3-3, A7-1, and A7-2; Cytotoxicity of the Glycosides Against Human Breast Cancer Cell Lines; Structure–Activity …” (Marine Drugs, 2024).
